Measurements as given in patent US20130164259A1, “1,4-S[…] DERIVATIVES AND METHODS OF USE THEREOF” (priority 2009, published 2013).

Biological target: T1, HCV NS5B polymerase (NS5BΔCT21) (Hepatitis C virus genotype 1b, UniProt Q9WMX2)
T1 construct: A soluble C-terminal 21-amino acid truncated NS5B enzyme form; polyhistidine (C); made in house; host or cells: Escherichia coli
Assay: HCV NS5B Polymerase Inhibition Assay
Assay type: biochemical, HCV-Con 1 isolate
Excerpt: A chemically synthesized 75-mer version, designated DCoH75, whose sequence matches the 3′-end of D-RNA, and DCoH75ddC, where the 3′-terminal cytidine of DCoH75 is replaced by dideoxycytidine, were used for assaying the NS5B enzyme activity as described in Ferrari et al., 12th International Symposium on HCV and Related Viruses, P-306 (2005). The sequence of the template RNA was: 5′-UGUGCCGGUCUUUCUGAACGGGAUAUAAACCUGGCCAGCUUCAUCGAACAAGUUGCCGUGUCUAUGACAUAGAUC-3′ (SEQ ID NO: 1). A soluble C-terminal 21-amino acid truncated NS5B enzyme form (NS5BΔCT21, from HCV-Con 1 isolate, genotype 1b, Genbank accession number AJ238799) was produced and purified from Escherichia coli as C-terminal polyhistidine-tagged fusion protein as described in Ferrari et al., J. Virol. 73:1649-1654 (1999). A typical assay contained 20 mM Hepes pH 7.3, 10 mM MgCl2, 60 mM NaCl, 100 μg/ml BSA, 20 units/ml RNasin, 7.5 mM DTT, 0.1 μM ATP/GTP/UTP, 0.026 μM CTP, 0.25 mM GAU, 0.03 μM RNA template, 20 μCi/ml [^33P]-CTP, 2% DMSO, and 30 or 150 nM NS5B enzyme. Reactions were incubated at 22° C. for 2 hours, then stopped by adding 150 mM EDTA, washed in DE81 filter plate in 0.5M di-basic sodium phosphate buffer, pH 7.0, and counted using Packard TopCount after the addition of scintillation cocktail. Polynucleotide synthesis was monitored by the incorporation of radiolabeled CTP. The effect of the Compounds of Formula (I) on the polymerase activity was evaluated by adding various concentrations of a Compound of Formula (I), typically in 10 serial 2-fold dilutions, to the assay mixture. The starting concentrations ranged from 200 μM to 1 μM. An IC50 value for the inhibitor, defined as the compound concentration that provides 50% inhibition of polymerase activity, was determined by fitting the cpm data to the Hill equation Y=100/(1+10̂((LogIC50−X)*HillSlope)), where X is the logarithm of compound concentration, and Y is the % inhibition. Ferrari et al., 12th International Symposium on HCV and Related Viruses, P-306 (2005) described in detail this assay procedure. It should be noted that such an assay as described is exemplary and not intended to limit the scope of the invention. The skilled practitioner can appreciate that modifications including but not limited to RNA template, primer, nucleotides, NS5B polymerase form, buffer composition, can be made to develop similar assays that yield the same result for the efficacy of the compounds and compositions described in the invention.
NS5B polymerase inhibition data was calculated for the compounds of the present invention using this method and is set forth in the table below.

Row | SMILES | IC50
1 | CC(C)(C)c1ccc(NC(=O)c2cccnc2)c(N2CCN(c3cnccn3)CC2)c1 [Compound 63] | 3 µM
2 | C=C(C)c1ccc(NC(=O)c2cccnc2)c(N2CCN(c3cnccn3)CC2)c1 [Compound 64] | 7 µM
3 | O=C(Nc1ccc(Br)cc1N1CCN(c2cnccn2)CC1)c1cccnc1 [Compound 65] | > 20 µM
4 | O=C(Nc1ccc(C2CC2)cc1N1CCN(c2cnccn2)CC1)c1cccnc1 [Compound 66] | 12 µM
5 | O=C(Nc1ccc(-c2ccccc2)cc1N1CCN(c2cnccn2)CC1)c1cccnc1 [Compound 67] | 8 µM
6 | O=C(Nc1ccc(C(F)(F)F)cc1N1CCN(c2cnccn2)CC1)c1cccnc1 [Compound 68] | > 20 µM
7 | CCOC(=O)c1ccc(NC(=O)c2cccnc2)c(N2CCN(c3cnccn3)CC2)c1 [Compound 69] | > 5 µM
8 | O=C(Nc1ccc(I)cc1N1CCN(c2cnccn2)CC1)c1cccnc1 [Compound 70] | 13 µM
